Laboratory results as given in PubChem BioAssay (NCI).
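Assay format: 96-well plates, 48-hour exposure. TGI is the concentration that stops growth completely.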

Assays:
Experiment in all cases: NCI-60 cell line screen, 48 h
[1] = tested on: RPMI-8226 leukemia
[2] = tested on: PC-3 prostate
[3] = tested on: SK-OV-3 ovarian
[4] = tested on: MDA-MB-435
[5] = tested on: K-562 leukemia
[6] = tested on: NCI-H226 lung
[7] = tested on: OVCAR-8 ovarian
[8] = tested on: SN12C renal
[9] = tested on: SNB-19 CNS
[10] = tested on: NCI-H23 lung
[11] = tested on: BT-549 breast
[12] = tested on: SK-MEL-2 melanoma
[13] = tested on: OVCAR-4 ovarian
[14] = tested on: M14 melanoma
[15] = tested on: SF-295 CNS
[16] = tested on: CCRF-CEM leukemia
[17] = tested on: HT29 colon
[18] = tested on: SF-539 CNS
[19] = tested on: HCC-2998 colon

Compound	TGI [1]	TGI [2]	TGI [3]	TGI [4]	TGI [5]	TGI [6]	TGI [7]	TGI [8]	TGI [9]	TGI [10]	TGI [11]	TGI [12]	TGI [13]	TGI [14]	TGI [15]	TGI [16]	TGI [17]	TGI [18]	TGI [19]
CC(=O)N/N=C1/CC[C@@]2(C)C(=CC[C@H]3C4CCC(C(C)CCCC(C)C)[C@@]4(C)CCC32)C1(C)C (stereo not given in full)	> 100 µM	> 100 µM	> 100 µM	> 100 µM	> 100 µM	> 100 µM	> 100 µM	> 100 µM	> 100 µM	> 100 µM	> 100 µM	> 100 µM	> 100 µM	> 100 µM	> 100 µM	> 100 µM	> 100 µM	–	–
Cc1n[nH]c(=O)n1/N=C/c1ccncc1	–	–	> 100 µM	> 100 µM	> 100 µM	> 100 µM	> 100 µM	> 100 µM	> 100 µM	> 100 µM	–	> 100 µM	> 100 µM	> 100 µM	> 100 µM	> 100 µM	> 100 µM	> 100 µM	> 100 µM
COC(=O)C1N=CSCC1(C)O (stereo not given)	> 100 µM	–	> 100 µM	–	> 100 µM	> 100 µM	> 100 µM	> 100 µM	> 100 µM	> 100 µM	–	> 100 µM	> 100 µM	> 100 µM	> 100 µM	> 100 µM	> 100 µM	> 100 µM	> 100 µM
Cn1c(=O)cc(NCCc2ccccc2)[nH]c1=O	> 100 µM	> 100 µM	> 100 µM	–	> 100 µM	> 100 µM	> 100 µM	> 100 µM	> 100 µM	> 100 µM	> 100 µM	> 100 µM	> 100 µM	> 100 µM	97.6 µM	> 100 µM	78.1 µM	> 100 µM	> 100 µM
CC1(C)CC(=O)c2c(nc(SSc3nc4c(c(-c5ccc(Br)cc5)c3C#N)C(=O)CC(C)(C)C4)c(C#N)c2-c2ccc(Br)cc2)C1	> 10 µM	> 10 µM	> 10 µM	–	> 10 µM	> 10 µM	> 10 µM	> 10 µM	> 10 µM	> 10 µM	> 10 µM	> 10 µM	> 10 µM	> 10 µM	> 10 µM	> 10 µM	> 10 µM	> 10 µM	> 10 µM
